Experimental data: patent publication US20030232400A1, “Methods of screening subjects for expression of soluble receptors of vascular endothelial growth factor (VEGF) for use in managing treatment and determining prognostic outcome” (priority 2002, published 2003)
“Also recorded” adds a separate entry of the source.

Experiments:
LLC-HM primary tumor = LLC-HM primary tumor model, preclinical studies in mice; format: in vivo
[1] = Phase I clinical trials, tolerability; format: in vivo, human; conditions: doses up to 300 mg/m^2 administered IV or SC
[2] = Phase II study RPI0003 (IFL + ANGIOZYME), adverse events; format: in vivo, human
Protocol: Beginning on study day 4, patients received daily doses of 100 mg/m^2 ANGIOZYME by subcutaneous injection. Unidimensional tumor measurements were obtained from CT scans after 12 and 24 weeks of treatment. Responses were then confirmed 4 weeks following initial response. ANGIOZYME treatment continued until disease progression.
Adverse event reporting for RPI0003 is ongoing for the 6 patients continuing to receive ANGIOZYME in the maintenance protocolis. […] One patient has discontinued RPI0003 due to an ISR.
Of the MedDRA organ system classes most likely to be affected by antiangiogenic drugs, only the vascular complications (DVT/PE) may appear in excess in this study. […] This observation was communicated to the FDA in September, 2002. Patients continue in the maintenance trial with all PEs and DVTs being classified as serious and ANGIOZYME-related to ensure complete reporting of these events.

[3] = system: murine mammary (4T1) model; assay: Murine mammary (4T1) model; format: in vivo
Text: (§1) A reduction of metastasis in a human KM12 colorectal cancer xenograft and reduced metastasis and increase in survival in the murine mammary (4T1) model were also observed with ANGIOZYME treatment.

[4] = Preclinical absorption after subcutaneous administration; format: in vivo; conditions: subcutaneous (SC) administration
Text: as §1

[5] = 13-week toxicology studies; format: in vivo; conditions: doses up to 300 mg/m^2/d
[6] = system: late-stage metastatic breast cancer; assay: Phase II monotherapy trial RPI0001, tumor response; format: in vivo, human
Protocol: (§2) In a Phase II monotherapy ANGIOZYME trial, 45 late-stage metastatic breast cancer patients who had failed multiple prior treatments received 100 mg/m^2 ANGIOZYME by daily SC injection. Due of the critical nature of the disease, most progressed and discontinued drug at the first evaluation (week 6). […] Clinical and biomarker results are summarized.
(§3) In RPI0001, ANGIOZYME monotherapy decreased sVEGFR-1 levels in the metastatic breast cancer setting, although there were no responses in this late-stage disease population.

[7] = system: HEY ovarian, SK-MEL-1 melanoma and ACHN renal carcinoma cell lines; assay: Murine dermis model, peritumoral vessels; format: in vivo
sVEGFR-1 = assay: Phase II monotherapy trial RPI0001, sVEGFR-1 level; format: in vivo, human; conditions: monotherapy 100 mg/m^2 daily SC, metastatic breast cancer patients, by week 6
Protocol: as §2, §3

[8] = system: human KM12 colorectal cancer xenograft; assay: Human KM12 colorectal cancer xenograft, metastasis; format: in vivo, mice
Text: as §1

[9] = system: metastatic colorectal cancer; conditions: cited from earlier work

ANGIOZYME: stabilized ribozyme that targets the pre-mRNA of vascular endothelial growth factor receptor-1 (VEGFR-1); structure in FIG. 8 (GAGUUGCUGAUGAGGCCGAAAGGCCGAAAGUCUG; stabilized ribozyme, chemical modifications not given here)
growth of the LLC-HM primary tumor (LLC-HM primary tumor): inhibited the growth of the LLC-HM primary tumor in a dose-dependent manner
mean vascular density in tumor sections (LLC-HM primary tumor; LLC-HM model): decreased
number of lung metastases (LLC-HM primary tumor; LLC-HM model): reduced
tolerability [1]: well tolerated
patients discontinued due to an injection site reaction (ISR) ([2]; RPI0003): One
tolerability ([2]; RPI0003, daily SC injection in combination with IFL): well tolerated
toxicity added to the chemotherapy ([2]; RPI0003, with the possible exception of increased vascular complications): added no toxicity
most frequent adverse experiences ([2]; RPI0003 and all other ANGIOZYME studies): injection site reactions
metastasis [3]: reduced
survival [3]: increase
absorption [4]: well absorbed
tolerability [5]: well tolerated
tumor responses [6]: no responses
interaction with interferon treatment [7]: synergistic
number of peritumoral vessels ([7]; HEY, SK-MEL-1, ACHN cell lines): reduced
change in sVEGFR-1 (sVEGFR-1): significant decrease; also recorded: decreased
metastasis [8]: reduction

irinotecan/5-fluorouracil/leucovorin [IFL]
response rate ([9]; IFL alone, patients who received IFL, good performance status, CT at 12 or 24 weeks): ~40%
Median time to progression (TTP) ([9]; IFL arm of the Pharmacia study): > 7.0 months
At least Stable at Week 12 ([9]; N = 192, Pharmacia 0038): 83%
At least Stable at Week 24 ([9]; N = 192, Pharmacia 0038): 80%
Best Overall Response (Week 24) ([9]; N = 192, Pharmacia 0038): 37%
Best Overall Response, Confirmed at Week 12 ([9]; N = 192, Pharmacia 0038): 35%
Best Overall Response, Unconfirmed at Week 12 ([9]; N = 192, Pharmacia 0038): 48%
Discontinued by Week 12 Due to Disease Progression ([9]; N = 192, Pharmacia 0038): 12%
